From US20250195521A1 (Revolution Medicines, Inc., priority 2020, published 2025)
Like-named read-outs stand apart in the source and are kept apart here.

What was measured:
[1] = target: K-Ras G12C(GMP-PNP) binding to BRAF RBD (Homo sapiens (Human), UniProt P01116+P62937, G12C); assay: Disruption of BRAF RBD interaction with K-Ras (FRET / MOA assay), K-Ras G12C; assay type: biochemical
Description: Note—The following protocol describes a procedure for monitoring disruption of K-Ras G12C(GMP-PNP) binding to BRAF^RBD by a compound of the invention. This protocol may also be executed substituting other Ras proteins or nucleotides.
The purpose of this biochemical assay was to measure the ability of test compounds to facilitate ternary complex formation between a nucleotide-loaded K-Ras isoform and Cyclophilin A; the resulting ternary complex disrupts binding to a BRAF^RBD construct, inhibiting K-Ras signaling through a RAF effector. Data is reported as IC50 values.
Compound was present in plate wells as a 10-point 3-fold dilution series starting at a final concentration of 30 μM. After incubation at 25° C. for 3 hours, a mixture of Anti-His Eu—W1024 and anti-GST allophycocyanin was then added to assay sample wells at final concentrations of 10 nM and 50 nM, respectively, and the reaction incubated for an additional 1.5 hours. […] Compounds that facilitate disruption of a K-Ras: RAF complex were identified as those eliciting a decrease in the TR-FRET ratio relative to DMSO control wells.

NCI-H358 (K-Ras G12C) = assay: CellTiter-Glo cell viability assay, NCI-H358; assay type: cell-based, human
How it was run: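 After direct compound addition, plates were incubated to day 5 and equilibrated at room temperature for about 30 minutes before CellTiter-Glo reading. Values derive from luminescence relative to the DMSO mean, fitted with a four-parameter logistic model.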

[2] = tested on: K-Ras G12C (NCI-H358 cells); assay: Potency assay: pERK in NCI-H358 cells; assay type: cell-based, human; details: read-out: pERK EC50 (H358 KRAS G12C)
How it was run: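 Cells plated the day before were exposed for 4 h at 37° C, 5% CO2 to a 10-point, 3-fold DMSO dilution series (10 mM top stock), in duplicate. Phospho-ERK was read by AlphaLISA SureFire Ultra or by In-Cell Western with DRAQ5 DNA stain, and IC50 came from a 4-parameter sigmoidal fit.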

KRAS G12D = KRAS G12D (Homo sapiens (Human), UniProt P01116+P62937, G12D); assay: Ras-Raf disruption/FRET/MOA assay (BRAF RBD, Cyclophilin A); assay type: biochemical; details: read-out: KRAS G12D FRET IC50
How it was run: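 TR-FRET read after 1.5 h with 10 nM anti-His Eu-W1024 and 50 nM anti-GST APC, following 3 h at 25 °C of GMPPNP-loaded His6-Ras (12.5 nM), GST-BRAF RBD (50 nM) and Cyclophilin A (25 μM) with compound from 30 μM final, 10 points, 3-fold. IC50 reported; pH 7.3 HEPES, 100 mM NaCl.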

[3] = tested on: Capan-1 cells (K-Ras G12V); assay: CellTiter-Glo cell viability, Capan-1; assay type: cell-based, human; details: Homo sapiens, CAPAN-1, 120 h, K-Ras G12V, 5-day treatment; read-out: Capan-1 Cell Viability IC50
How it was run: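 Endpoint: CellTiter-Glo luminescence on day 5, following ~30 min at room temperature. Data as (sample/mean DMSO)×100, four-parameter logistic fit.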

[4] = Homo sapiens, NCI-H358, 120 h, 5-day treatment, read-out: H358 Cell Viability assay data (K-Ras G12C, IC50)
[5] = Homo sapiens, NCI-H358 cells, 4 hours

Chain of K-Ras G12C(GMP-PNP) binding to BRAF RBD (P01116 other isoform, or with tags, fused parts or gaps G12C): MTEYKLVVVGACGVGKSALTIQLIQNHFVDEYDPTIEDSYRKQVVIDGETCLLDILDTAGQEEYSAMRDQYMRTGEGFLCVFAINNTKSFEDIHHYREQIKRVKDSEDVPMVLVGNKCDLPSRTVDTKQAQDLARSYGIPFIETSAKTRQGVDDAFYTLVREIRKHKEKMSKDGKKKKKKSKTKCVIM
Chain of K-Ras G12C(GMP-PNP) binding to BRAF RBD (P62937 whole entry): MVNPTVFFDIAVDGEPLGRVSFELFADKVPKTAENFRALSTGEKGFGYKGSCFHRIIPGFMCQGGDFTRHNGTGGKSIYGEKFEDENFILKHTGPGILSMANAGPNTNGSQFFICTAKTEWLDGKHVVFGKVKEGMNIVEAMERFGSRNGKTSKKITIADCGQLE
Chain of KRAS G12D (P01116 other isoform, or with tags, fused parts or gaps G12D): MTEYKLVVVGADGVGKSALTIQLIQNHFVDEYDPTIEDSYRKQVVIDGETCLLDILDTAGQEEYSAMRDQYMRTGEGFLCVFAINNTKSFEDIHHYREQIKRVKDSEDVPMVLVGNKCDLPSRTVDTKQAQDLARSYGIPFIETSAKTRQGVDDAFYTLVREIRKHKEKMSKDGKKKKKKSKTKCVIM
Chain of KRAS G12D (P62937 whole entry): as the sequence (P62937 whole entry) above

Compound | IC50 ([1]; read-out: KRAS G12C FRET IC50) [nM] | IC50 (NCI-H358 (K-Ras G12C); [4]) [µM] | also measured
CCO[C@@H]1c2nc(cs2)-c2ccc3c(c2)c(c(-c2cc([C@H]4CCN5CCOC[C@@H]5C4)cnc2[C@H](C)OC)n3CC)CC(C)(C)COC(=O)[C@@H]2CCCN(N2)C(=O)[C@H]1NC(=O)[C@H]1[C@H](C)[C@@H]1C [Compound A390, (1r,2R,3S)—N-((6^3S,3S,4S,Z)-3-ethoxy-1^1-ethyl-1^2-(2-((S)-1-methoxyethyl)-5-((8R,9aS)-octahydropyrido [2,1-c][1,4]oxazin-8-yl)pyridin-3-yl)-10,10-dimethyl-5,7-dioxo-6^1,6^2,6^3,6^4,6^5,6^6-hexahydro-1^1H-8-oxa-2 (4,2)-thiazola-1 (5,3)-indola-6 (1,3)-pyridazinacycloundecaphane-4-yl)-2,3-dimethylcyclopropane-1-carboxamide] | 100 to 1000 |  | IC50 (NCI-H358 (K-Ras G12C); 5-day treatment, read-out: H358 Cell Viability assay data (K-Ras G12C, IC50)): 0.1 to 1 µM; EC50 ([2]; NCI-H358 cells, 4 hours): < 5000 nM
CCn1c(-c2cccnc2[C@H](C)OC)c2c3cc(ccc31)-c1csc(n1)C[C@H](NC(=O)[C@H](C(C)C)N(C)C(=O)N1CC([C@@H](C)CO)C1)C(=O)N1CCC[C@H](N1)C(=O)OCC(C)(C)C2 (single isomer, unassigned) [Compound A487] | 100 to 1000 | 0.01 to 0.1 | 
CCn1c(-c2cccnc2[C@H](C)OC)c2c3cc(ccc31)-c1cc(O)cc(c1)C[C@H](NC(=O)[C@H](C(C)C)N(C)C(=O)[C@H]1C[C@H]1C)C(=O)N1CCC[C@H](N1)C(=O)OCC(C)(C)C2 [Compound A146] | 100 to 1000 | 0.1 to 1 | 
CCn1c(-c2cccnc2[C@H](C)OC)c2c3cc(ccc31)-c1csc(n1)C[C@H](NC(=O)[C@H](C(C)C)N(C)C(=O)N1CCC13CN(C)C3)C(=O)N1CCC[C@H](N1)C(=O)OCC(C)(C)C2 [Compound A274] | 1000 to 10000 | 0.1 to 1 | 
CCn1c(-c2cccnc2[C@H](C)OC)c2c3cc(ccc31)-c1csc(n1)C[C@H](NC(=O)[C@H](C(C)C)N(C)C(=O)[C@@H]1OCC[C@@H]1C)C(=O)N1CCC[C@H](N1)C(=O)OCC(C)(C)C2 [Compound A143] | 100 to 1000 | 0.01 to 0.1 | 
CCn1c(-c2cccnc2[C@H](C)OC)c2c3cc(ccc31)-c1csc(n1)C[C@H](NC(=O)[C@H](C(C)C)N(C)C(=O)N1C[C@H]3CN(C)C[C@H]3C1)C(=O)N1CCC[C@H](N1)C(=O)OCC(C)(C)C2 [Compound A313] | 1000 to 10000 | > 10 | 
CCn1c(-c2cccnc2[C@H](C)OC)c2c3cc(ccc31)-c1csc(n1)C[C@H](NC(=O)[C@H](C(C)C)N(C)C(=O)N1CCC(N(C)C)CC1)C(=O)N1CCC[C@H](N1)C(=O)OCC(C)(C)C2 [Compound A571] |  | < 0.01 | IC50 ([1]; KRAS G12C FRET IC50): 100 to 1000 nM; EC50 [2, 5]: < 5000 nM
CCn1c(-c2cccnc2[C@H](C)OC)c2c3cc(ccc31)-c1csc(n1)C[C@H](NC(=O)[C@H](C(C)C)N(C)C(=O)N1CCCOCC1)C(=O)N1CCC[C@H](N1)C(=O)OCC(C)(C)C2 [Compound A335] | 100 to 1000 | 0.01 to 0.1 | EC50 [2, 5]: < 5000 nM
CCn1c(-c2cccnc2[C@H](C)OC)c2c3cc(ccc31)-c1nc(cs1)C[C@H](NC(=O)[C@H](C(C)C)N(C)C(C)=O)C(=O)N1CCC[C@H](N1)C(=O)OCC(C)(C)C2 [Compound A152] | 10 to 100 | 0.01 to 0.1 | EC50 [2, 5]: < 5000 nM
CCn1c(-c2cccnc2[C@H](C)OC)c2c3cc(ccc31)-c1csc(n1)C[C@H](NC(=O)[C@H](C(C)C)N(C)C(=O)N1CC3(CCN(C)CC3)C1)C(=O)N1CCC[C@H](N1)C(=O)OCC(C)(C)C2 [Compound A513] | 10 to 100 | < 0.01 | EC50 [2, 5]: < 5000 nM
CCn1c(-c2cc(N3CCN(C)CC3)cnc2[C@H](C)OC)c2c3cc(ccc31)-c1cccc(c1)C[C@H](NC(=O)[C@H](C(C)C)N(C)C(=O)[C@@H]1OCC[C@@H]1c1ccccc1)C(=O)N1CCC[C@H](N1)C(=O)OCC(C)(C)C2 [Compound A562] | 100 to 1000 | 0.1 to 1 | 
CCn1c(-c2cccnc2[C@H](C)OC)c2c3cc(ccc31)C1=C[C@@H](O)CN(C1)C[C@H](NC(=O)[C@H]1[C@H](C)[C@@H]1C)C(=O)N1CCC[C@H](N1)C(=O)OCC(C)(C)C2 [Compound A441, (1R,2R,3S)—N-((2^3S,6^3S,4S)-1^1-ethyl-2^3-hydroxy-1^2-(2-((S)-1-methoxyethyl)pyridin-3-yl)-10,10-dimethyl-5,7-dioxo-2^1,2^2,2^3,2^6,6^1,6^2,6^3,6^4,6^5,6^6-decahydro-1^1H-8-oxa-1 (5,3)-indola-6 (1,3)-pyridazina-2 (5,1)-pyridinacycloundecaphane-4-yl)-2,3-dimethylcyclopropane-1-carboxamide] | 1000 to 10000 |  | IC50 (KRAS G12D): 100 to 1000 nM; EC50 ([2]; NCI-H358 cells, 4 hours): < 5000 nM
CCn1c(-c2cccnc2[C@H](C)OC)c2c3cc(ccc31)-c1cc(O)cc(c1)C[C@H](NC(=O)[C@H](C(C)C)N(C)C(=O)N1CC(N(C)C)C1)C(=O)N1CCC[C@H](N1)C(=O)OCC(C)(C)C2 [Compound A171] | 1000 to 10000 | 0.1 to 1 | EC50 [2, 5]: < 5000 nM
CCn1c(-c2cccnc2[C@H](C)OC)c2c3cc(ccc31)-c1cc(O)cc(c1)C[C@H](NC(=O)[C@H](C(C)C)N(C)C(=O)C1(N)CC1)C(=O)N1CCC[C@H](N1)C(=O)OCC(C)(C)C2 [Compound A168] | 100 to 1000 |  | IC50 (NCI-H358 (K-Ras G12C); Homo sapiens, NCI-H358, 120 h, read-out: H358 Cell Viability assay data (K-Ras G12C, IC50, uM), 5-day treatment): 0.01 to 0.1 µM; EC50 ([2]; Homo sapiens, NCI-H358, 4 h): < 5000 nM
CCn1c(-c2cccnc2[C@H](C)OC)c2c3cc(ccc31)-c1csc(n1)C[C@H](NC(=O)[C@H](C(C)C)N(C)C(=O)N1CC3(CC(N(C)CCO)C3)C1)C(=O)N1CCC[C@H](N1)C(=O)OCC(C)(C)C2 [Compound A467] | 1000 to 10000 | 0.01 to 0.1 | 
CCn1c(-c2cccnc2[C@H](C)OC)c2c3cc(ccc31)-c1csc(n1)C[C@H](NC(=O)[C@H](C(C)C)N(C)C(=O)N1CC(C3CN(C)C3)C1)C(=O)N1CCC[C@H](N1)C(=O)OCC(C)(C)C2 [Compound A608] | 100 to 1000 | 0.01 to 0.1 | 
CCn1c(-c2cccnc2[C@H](C)OC)c2c3cc(ccc31)-c1cc(O)cc(c1)C[C@H](NC(=O)[C@H](C(C)C)N(C)C(=O)C1NCCC13CC3)C(=O)N1CCC[C@H](N1)C(=O)OCC(C)(C)C2 (stereo partly drawn) [Compound A228] | 1000 to 10000 | > 10 | 
CCn1c(-c2cccnc2[C@H](C)OC)c2c3cc(ccc31)-c1csc(n1)C[C@H](NC(=O)[C@H](C(C)C)N(C)C(=O)[C@H]1CCCO1)C(=O)N1CCC[C@H](N1)C(=O)OCC(C)(C)C2 [Compound A238] | 10 to 100 | 0.01 to 0.1 | 
CCn1c(-c2cccnc2[C@H](C)OC)c2c3cc(ccc31)-c1cc(O)cc(c1)C[C@H](NC(=O)[C@H](C(C)C)N(C)C(=O)[C@H]1CCN(C(=O)[C@H]3CCCN3)C1)C(=O)N1CCC[C@H](N1)C(=O)OCC(C)(C)C2 [Compound A378] | 100 to 1000 |  | IC50 [3]: 1000 to 10000 nM
CCn1c(-c2cccnc2[C@H](C)OC)c2c3cc(ccc31)-c1cc(C#N)cc(c1)C[C@H](NC(=O)[C@H](C(C)C)N(C)C(C)=O)C(=O)N1CCC[C@H](N1)C(=O)OCC(C)(C)C2 [Compound A430] | 100 to 1000 | 0.01 to 0.1 | 
